One molecule from publication PMC2247270, “Inhibition of vincristine binding to plasma membrane vesicles from daunorubicin-resistant Ehrlich ascites cells by multidrug resistance modulators” (British Journal of Cancer, 1989) can be followed below.

As usually defined, the IC50 is the midpoint of a concentration-inhibition curve. Read a high IC50 as a need for much substance.

The experiment has as its target T1, P-glycoprotein.
T1 construct: plasma membrane vesicles from EHR2/DNR+ Ehrlich ascites tumour cells
Description: inhibition of 3H-vincristine binding to plasma membrane vesicles, rapid filtration. The format is biochemical.

In turn, `CN1CCN(CCCN2c3ccccc3Sc3ccc(C(F)(F)F)cc32)CC1` [TFP, trifluoperazine] showed an IC50 of 23.2 µM.
